Assays:
Assay in all cases: biochemical
[1] = biological target: T1, EeAChE (AChE from Electrophorus electricus) (Electrophorus electricus, UniProt O42275); format: biochemical; conditions: modified Ellman's method, 37 °C, samples 1 to 100 µM, average ± standard deviation of three experiments
T1 construct: purchased Sigma-Aldrich (São Paulo, Brazil)
Method: (§1) In order to determine the anticholinesterase activity, we used Ellman’s method modified for a 96-wells plate. The velocities of substrate hydrolysis by AChE and BChE as function of sample concentration were evaluated for EeAChE and EqBChE. AChE, BChE and Ellman’s reagent (DTNB) were prepared in phosphate buffer (100 mM, pH 7.4). Acetylthiocholine iodide (ATCI), and butyrylthiocholine iodide (BTCI) were prepared in distilled water. Stock samples (100 mM) were prepared in dimethyl sulphoxide (DMSO) and appropriately diluted in distilled water to the desired concentrations immediately before use. All solutions were kept on ice during the experiment. All experiments were performed at 37 ± 1 °C.
(§2) The mixture was incubated for 10 min. Then, ATCI (0.5 mM) or BTCI (1.0 mM) was added to all wells and the plate was read immediately for 5 min in a spectrophotometer (Spectramax 340PC, Molecular Device®). The spontaneous and sample (100 µM) induced hydrolysis of the substrate were evaluated by replacing enzyme for buffer. […] The solvent (DMSO) was evaluated at the highest concentration (0.2%) used in the experiment. All concentrations refer to final concentrations. The samples were tested in at least 5 concentrations. […] The values of absorbance/min were calculated by the software Softmax Pro 6.4®. Inhibition values were calculated through non-linear regression with the software GraphPadPrism 5 (GraphPad software®, San Diego, CA, USA). […] EeAChE (EC.3.1.1.7), EqBChE (EC3.1.1.8), ATCI, BTCI and DTNB were purchased from Sigma-Aldrich (São Paulo, Brazil).

[2] = biological target: T2, EqBChE (butyrylcholinesterase from equine serum) (Equus caballus, UniProt P81908); format: biochemical; conditions: modified Ellman's method, 37 °C, samples 1 to 100 µM, average ± standard deviation of three experiments
T2 construct: butyrylcholinesterase from equine serum (EqBChE); purchased Sigma-Aldrich (São Paulo, Brazil); host or cells: equine serum
T2 sequence (P81908 whole entry): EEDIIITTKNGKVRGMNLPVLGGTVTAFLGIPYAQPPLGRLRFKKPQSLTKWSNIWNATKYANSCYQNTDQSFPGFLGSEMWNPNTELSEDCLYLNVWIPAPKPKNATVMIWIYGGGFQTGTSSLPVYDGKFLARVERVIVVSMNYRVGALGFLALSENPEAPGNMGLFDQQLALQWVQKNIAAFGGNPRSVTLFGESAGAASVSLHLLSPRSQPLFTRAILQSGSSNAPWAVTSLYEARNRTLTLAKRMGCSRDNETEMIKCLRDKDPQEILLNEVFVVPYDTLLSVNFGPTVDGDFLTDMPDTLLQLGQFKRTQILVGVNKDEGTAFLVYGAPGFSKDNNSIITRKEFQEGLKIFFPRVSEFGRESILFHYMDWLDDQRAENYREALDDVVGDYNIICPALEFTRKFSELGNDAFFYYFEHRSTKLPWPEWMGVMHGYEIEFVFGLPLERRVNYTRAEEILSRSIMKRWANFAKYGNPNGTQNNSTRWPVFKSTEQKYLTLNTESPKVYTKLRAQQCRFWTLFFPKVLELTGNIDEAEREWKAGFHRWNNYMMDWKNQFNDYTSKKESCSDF
Method: as §1, §2

[3] = biological target: T3, EeAChE (Electrophorus electricus, UniProt O42275); conditions: EeAChE 33 nM, ACh 5 mM, final concentration of the inhibitor 10 mM, 25 °C, triplicate; read-out: AChE inhibition (NMR test)
T3 construct: purchased Sigma-Aldrich (São Paulo, Brazil)
T3 sequence (O42275 24-633): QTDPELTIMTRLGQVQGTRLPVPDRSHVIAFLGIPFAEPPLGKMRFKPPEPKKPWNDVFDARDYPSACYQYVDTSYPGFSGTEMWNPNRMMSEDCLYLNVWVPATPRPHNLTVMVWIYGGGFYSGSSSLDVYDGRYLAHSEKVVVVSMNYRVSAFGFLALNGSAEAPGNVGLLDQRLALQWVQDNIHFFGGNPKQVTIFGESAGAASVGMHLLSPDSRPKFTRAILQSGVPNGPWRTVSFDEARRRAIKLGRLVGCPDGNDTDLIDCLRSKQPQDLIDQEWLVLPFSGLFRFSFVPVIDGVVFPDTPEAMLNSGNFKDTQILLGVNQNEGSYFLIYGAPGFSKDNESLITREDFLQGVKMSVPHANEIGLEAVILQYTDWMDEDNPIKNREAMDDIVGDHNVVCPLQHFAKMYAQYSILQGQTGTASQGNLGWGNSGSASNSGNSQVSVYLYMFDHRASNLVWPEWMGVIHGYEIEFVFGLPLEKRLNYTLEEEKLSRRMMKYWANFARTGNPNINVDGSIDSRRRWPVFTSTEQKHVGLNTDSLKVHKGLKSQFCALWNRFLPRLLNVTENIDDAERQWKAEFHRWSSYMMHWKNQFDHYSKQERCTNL
Method: This sample was immediately inserted in the magnet for locking and shimming, allowing for the observation of the first ^1H spectra exactly 5 min after the addition of ACh. The next ^1H spectra were acquired at every 5 min with a single scan over 75 min. For testing the new compound, the same procedure was performed, including the addition of 5 μL of the potential EeAChE inhibitor (final concentration of the inhibitor in the NMR tube = 10 mM) before the addition of ACh. […] The values generated from the integration of the signals of ACh (consumed during the reaction) and Ac (produced during the reaction) are compared between each other and to the values of Ac produced in the presence and in the absence of the inhibitor. This enables the calculation of the percentages of inhibition, as described before [32]. All analyses were performed in triplicate.

T1 sequence (O42275 24-633): as above

| SMILES | IC50 [1] [µM] | also measured |
| --- | --- | --- |
| COC(=O)c1cc2cc3c(cc2nc1C)OCO3 [Compound 4, Methyl 6-Methyl-[1,3]dioxolo[4,5-g]quinone-7-carboxilate] | > 100 | IC50 EeAChE [1]: not able to inhibit; IC50 EqBChE [2]: not able to inhibit |
| CCOC(=O)c1cc2cc3c(cc2[nH]c1=O)OCO3 [Compound 7, Ethyl 5,6-Dehidro-6-oxo-[1,3] dioxolano [4,5-g] quinoline-7-carboxilate] | 62.8 ± 2.02 | – |
| O=c1[nH]c(=O)c2cc3cc4c(cc3nc2[nH]1)OCO4 [Compound 6, 1,3-Dioxolo [4,5-g] pirimido [4,5-b] quinoline-7,9 (6H,8H)-dione] | 32.1 ± 3.53 | – |
| CC1(C)CC(=NNC(=N)N)c2cc3cc4c(cc3nc2C1)OCO4 [Compound 8, Guanylhydrazone of 7,7-Dimethyl-7,8-dihydro-[1,3]dioxolo[4,5-b]acridin-9(6h)-one] | 8.5 ± 0.39 | IC50 [2]: 15.2 ± 0.75 µM; inhibition at 10000 µM [3]: 73.9 ± 6.26% |
| CC1(C)CC(=O)c2cc3cc4c(cc3nc2C1)OCO4 [Compound 3, 7,8-Dihydro-7,7-dimethyl-1,3-dioxolo[4,5-b]acridin-9(6h)-one] | 51.5 ± 2.47 | – |
| O=C(O)c1cc2cc3c(cc2[nH]c1=O)OCO3 [Compound 5, Acid 5,6-Diidro-6-oxo-1,3-dioxolo[4,6g] quiniline-7-carboxilic] | 14.2 ± 1.15 | – |

— paper PMC6720848, “Synthesis of New Quinoline-Piperonal Hybrids as Potential Drugs against Alzheimer’s Disease” (International Journal of Molecular Sciences, 2019)
